Results taken from paper PMC6522964 (Journal of Enzyme Inhibition and Medicinal Chemistry, 2019).
Like-named read-outs stand apart in the source and are kept apart here.

Key:
tyrosinase [1] = molecular target: T1, tyrosinase (Agaricus bisporus, UniProt C7FF04); assay type: biochemical, mushroom; details: increasing CuCl2 0-240 μM; diphenolase activity
T1 construct: purchased Sigma-Aldrich (St. Louis, MO, USA)
Protocol: To investigate whether the binding of copper ions with the inhibitor takes place at the active site of tyrosinase, the assay was carried out according to the method by Ismaya with some modifications.[17] Stock solutions of each KADs (10 mM) were prepared in DMSO. Then, 0.33 mM solutions were prepared in a cuvette containing phosphate buffer (10 mM, pH 7.4), and treated with different concentrations of CuCl2 (0, 60, 120, 180 or 240 µM). After 10 min of incubation period at room temperature, absorbance was scanned from 240 to 600 nm. Moreover, the relative activity of tyrosinase was determined by adding 0.1 ml various concentrations of CuCl2–KADs complexes from the previous step. The reaction system and the method were the same as the determination of diphenolase activity.

mushroom tyrosinase [2] = molecular target: T2, mushroom tyrosinase (Agaricus bisporus, UniProt C7FF04); experiment: Diphenolase activity of mushroom tyrosinase (L-DOPA as substrate), Lineweaver-Burk kinetics; assay type: biochemical; details: for Inhibition Type / Inhibition Mechanism: diphenolase; for Inhibition Type: Lineweaver-Burk plots; for Inhibition Mechanism: enzyme activity vs enzyme concentration plots; for Inhibition constant KIS: enzyme-substrate complex, plot of vertical intercepts vs inhibitor concentration; for Ki: free enzyme, plot of slopes vs inhibitor concentration, read-out: Inhibition constant KI
T2 construct: purchased Sigma-Aldrich (St. Louis, MO, USA)
T2 sequence (C7FF04 1-392): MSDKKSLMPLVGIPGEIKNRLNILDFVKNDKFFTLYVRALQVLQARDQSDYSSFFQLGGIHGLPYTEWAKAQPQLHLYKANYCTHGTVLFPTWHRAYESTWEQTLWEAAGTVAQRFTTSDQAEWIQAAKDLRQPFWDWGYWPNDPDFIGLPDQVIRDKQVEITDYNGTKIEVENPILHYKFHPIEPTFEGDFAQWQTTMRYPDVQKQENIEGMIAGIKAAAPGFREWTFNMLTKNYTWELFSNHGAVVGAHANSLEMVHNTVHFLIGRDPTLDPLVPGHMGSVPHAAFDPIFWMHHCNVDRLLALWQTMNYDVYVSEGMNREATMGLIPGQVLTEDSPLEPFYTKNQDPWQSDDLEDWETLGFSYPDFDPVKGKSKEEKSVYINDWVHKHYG
Protocol: (§1) The reaction system (3 ml) contained 1 mM L-Tyr or 0.5 mM L-DOPA and enzyme in 50 mM Na2HPO4–NaH2PO4 buffer (pH 6.8) and different concentrations of KADs. The KADs were dissolved in DMSO and diluted to appropriate concentration, such that the final concentration of DMSO is maintained at 3.3%. […] The enzyme activity was evaluated by increasing the absorbance at 475 nm accompanying the oxidation of the substrates with a molar absorption coefficient of 3700 (M^−1 cm^−1). […] The reaction was carried out at 37 °C. A Thermo […] GO spectrophotometer was used for absorbance and kinetic measure.

mushroom tyrosinase [3] = molecular target: T2, mushroom tyrosinase; details: L-DOPA substrate, read-out: IC50 Diphenolase; cited from earlier work
mushroom tyrosinase [4] = molecular target: T2, mushroom tyrosinase; details: L-Tyr substrate, read-out: IC50 Monophenolase; cited from earlier work
tyrosinase [5] = molecular target: T1, tyrosinase; experiment: Intrinsic fluorescence quenching of tyrosinase (Stern-Volmer); assay type: binding, mushroom
Protocol: Fluorescence spectra were determined as previously reported by Zhu.[12] Cary Eclipse fluorescence spectrophotometer was used to record the fluorescence intensities at an excitation wavelength of 280 nm, and emission and excitation slit widths were 10 nm and 5 nm, respectively. At wavelengths of 300–450 nm, fluorescence emission spectra were recorded. In this assay, 10 μL of KADs of different concentrations were incorporated with 2 ml tyrosinase solution (0.2 mg/ml).
The fluorescence quenching data expressed as the fluorescence intensity against KADs concentration. Fluorescence quenching was calculated using the Stern–Volmer equation: F0/F = 1 + KSV[Q] Where F0 is the fluorescence intensities of tyrosinase, F is the fluorescence intensities after addition of the quencher, [Q] is the concentration of the quencher and KSV is the Stern–Volmer quenching constant. For the calculation of biomolecular quenching constants, the data were plotted as F0/F against [Q], with the biomolecular quenching constants calculated by linear regression.
There are two known fluorescence quenching mechanisms: static quenching is caused by complex formation while dynamic quenching is caused by collisional processes.[13] For the static quenching, the KSV value must be larger than 100 M^−1 and the apparent binding constant (KA) and the binding sites (n) were estimated by plots of log[(F0−F)/F] versus log[Q] using the following equation:[14] log ((F0 − F)/F) = logKA + nlog [Q]

B16F10 cell = details: cited from earlier work
[6] = ABTS+ free-radical scavenging assay
Protocol: (§2) The antioxidant capacities of compounds usually analysed through DPPH and ABTS^+ free-radical scavenging assays. The DPPH free-radical scavenging was conducted according to the procedure described by Chen.[18] Stock solution (0.2 mM DPPH) was prepared in 95% methyl alcohol and diluted to with OD value of 1.1 ± 0.05 at 517 nm for analysis. Briefly, 0.1 ml of compounds dissolved in DMSO at different concentrations (50, 200, 400 and 800 μg/ml) were added to DPPH with a methyl alcohol solution (0.2 mM, 2.9 ml). The mixture was shaken gently and absorbance was read at 517 nm every 5 min, a total of 30 min. The ABTS^+ free-radical scavenging activity assay was performed as described by Ai[9] with slight modification. 7 mM ABTS^+ and 2.45 mM K2S2O8 were dissolved in 10 mM sodium phosphate buffer and then placed at dark room for 16 h to obtain ABTS^+ stock solution. […] After 6 min of incubation period at room temperature, absorbance was read at 714 nm. The scavenging capacity of the antioxidant for the free-radical was calculated according to the following equation: Radical scavenging effect (%) = (1 − A1/A0) × 100% where A0 is the absorbance of blank control and A1 is the absorbance in the presence of sample. Data are represented from three independent experiments, and the mean values were calculated. […]

mushroom tyrosinase [7] = molecular target: T2, mushroom tyrosinase; experiment: Monophenolase activity of mushroom tyrosinase (L-Tyr as substrate); assay type: biochemical; details: maximum concentration 20 μM
Protocol: as §1

[8] = DPPH free-radical scavenging assay
Protocol: as §2

T1 sequence (C7FF04 1-392): as above

| SMILES | Change of relative tyrosinase activity after treatment with Cu2+ (tyrosinase [1]) | Inhibition Type (mushroom tyrosinase [2]) | Inhibition Mechanism (mushroom tyrosinase [2]) | Inhibition constant KIS (mushroom tyrosinase [2]) | Ki (mushroom tyrosinase [2]) | IC50 (mushroom tyrosinase [3]) | IC50 (mushroom tyrosinase [4]) | Kd (tyrosinase [5]) | KSV (Stern-Volmer quenching constant) (tyrosinase [5]; λex 280 nm) | Type of quenching (tyrosinase [5]; λex 280 nm) | n (binding sites) (tyrosinase [5]; λex 280 nm) | Inhibition of melanogenesis (B16F10 cell) | IC50 of ABTS+ [6] | Lag time of monophenolase activity (mushroom tyrosinase [7]) | Steady-state activity of monophenolase decreased to (mushroom tyrosinase [7]; remaining activity) | IC50 of DPPH [8] | KA (apparent binding constant) (tyrosinase [5]; λex 280 nm) |
| --- | --- | --- | --- | --- | --- | --- | --- | --- | --- | --- | --- | --- | --- | --- | --- | --- | --- |
| N[C@@H](Cc1ccc(O)c(O)c1)C(=O)O [DOPA, 3,4-dihydroxyphenylalanine, reference compound] | almost no changes |  |  |  |  |  |  |  |  |  |  |  |  |  |  |  |  |
| Nn1c(N/N=C/C=C/c2ccccc2)nnc1SCc1cc(=O)c(O)co1 [KAD1] | 1.5 times | Mixed | Reversible | 45.50 µM | 4.95 µM | 8.33 ± 0.22 µM | 21.6 µM | 34.8 µM | 58400 M⁻¹ | Static | 0.9394 |  |  |  |  |  |  |
| COc1ccccc1C=CC=NNc1nnc(SCc2cc(=O)c(O)co2)n1N [KAD2] | 2 times | Mixed | Reversible | 9.18 µM | 6.3 µM | 7.5 ± 0.13 µM | 20.5 µM |  | 57000 M⁻¹ | Static | 1.0394 | effectively inhibit melanogenesis | 126.63 mg/L | 6.7 min | 48.29% | 227.80 mg/L | 141000 M⁻¹ |
